Assay: Solubility study of adapalene with randomly methylated β-cyclodextrins
Assay type: physicochemical
Method: A solubility study was performed by adding excess amounts of adapalene (5 mg) to six glass vials containing 10 mL aqueous solutions of increasing concentrations of randomly methylated β-cyclodextrins (0-7×10^−3 M) dissolved in 154 mM NaCl and 10 mM Na-phosphate (pH 7). The samples were mixed at room temperature for six days, and then they were centrifuged at 4000 rpm for 3 minutes. The supernatants were filtered through a 0.2 μm filter in order to remove undissolved adapalene. The UV absorbance of the filtrates was then measured at 320 nm in order to determine the concentration of dissolved adapalene. The concentration of adapalene in each sample was calculated from a calibration curve.
For sample 1, from the solubility diagram study in Example 16 containing 0.7 mM randomly methylated β-cyclodextrin and an excess of adapalene, 550 μl of the filtered sample, was added to a 2 ml Eppendorf tube. The sample was then lyophilized and the solvent exchanged to D2O.
Sample 2 containing 1.5 mM randomly methylated β-cyclodextrin and 0.15 mM of adapalene dissolved in D2O and 1% DMSO-d6 was prepared by adding 550 μl of the sample to a 2 ml Eppendorf tube. The sample was then lyophilized and the solvent exchanged again to D2O.

Complexed adapalene (sample 1: 0.7 mM randomly methylated β-cyclodextrin, excess adapalene, filtered, according to solubility diagram data): about 0.075 mM | Complexed adapalene (sample 2: 1.5 mM randomly methylated β-cyclodextrin and 0.15 mM adapalene in D2O and 1% DMSO-d6): about 0.15 mM
SMILES: COc1ccc(-c2ccc3cc(C(=O)O)ccc3c2)cc1C12CC3CC(CC(C3)C1)C2 [adapalene, 6-[3-(1-adamantyl)-4-methoxy-phenyl] naphthalene-2-carboxylic acid]
Solubility of adapalene (randomly methylated β-cyclodextrins 0-7×10^−3 M, 154 mM NaCl, 10 mM Na-phosphate pH 7, room temperature, six days (FIG. 3)): increases with increasing CD concentration

Reference: US10988600B2, “Cyclodextrin-grafted cross-linked hyaluronic acid complexed with active drug substances and uses thereof” (GALDERMA S.A., priority 2016, dated 2021)
